Results published in patent US20250375440A1, “COMPOSITION AND METHOD OF TREATING CANCER ASSOCIATED WITH EGFR MUTATION” (BEYONDSPRING PHARMACEUTICALS, INC., priority 2018, published 2025).

Tested on: NCI-H1975 Human Lung Cancer Xenograft
Assay: subcutaneous NCI-H1975 Human Lung Cancer Xenograft Model in Balb/c Nude Mice, tumor size
Format: in vivo, Mus Musculus (Balb/c nude mice)
Details: single agent
Method: The therapeutic efficacy of Osimertinib and Plinabulin were tested in vivo. The two drugs were tested as a single agent and in combination in the treatment of subcutaneous NCI-H1975 Human Lung Cancer Xenograft Model in Balb/c Nude Mice. The administration of the test articles and the animal numbers in each study group were shown in the following experimental design table 1. [table] Study endpoints: The major endpoints of the study include the followings: Tumor growth inhibition (TGI): TGI % was an indication of antitumor effectiveness, and expressed as: TGI (%)=100×(1-T/C). T and C were the mean tumor volume (or weight) of the treated and control groups, respectively, on a given day. The test uses 6-8 weeks female mice (species: Mus Musculus, Strain: Balb/c nude). The average body weight of the mice was 18-22 g. A total of 84 mice (60 plus 40% spare) were used. The animals were housed in individual ventilated cages (up to 5 mice per cage) under the following conditions: Temperature: 20˜26° C.; Humidity: 40-70%; Light cycle: 7:00 am-19:00 pm light and 19:00 pm-7:00 am (next day) darkness; Polysulfone IVC cage: size of 325 mm×210 mm×180 mm; Bedding material: corn cob; Diet: Mouse diet, Co60 irradiation sterilized dry granule food. Animals have free access during the entire study period; Water: Reverse osmosis (RO) water, autoclaved before using. […] The cells growing in an exponential growth phase were harvested and counted for tumor inoculation. […] Group assignment: Before grouping and treatment, all animals were weighed and the tumor volumes were measured using a caliper. […] During routine monitoring, the animals were checked for any effects of tumor growth and treatments on normal behavior such as mobility, visual estimation of food and water consumption, body weight gain/loss (body weights were measured twice per week), eye/hair matting and any other abnormal effect. […]

Structure (SMILES) | tumor size change after tumor inoculation (Group 2, osimertinib 2.5 mg/kg p.o. QD x 5/wk) | tumor size change after tumor inoculation (Group 3, plinabulin 7.5 mg/kg i.p. BIW 2 wks) | tumor size change after tumor inoculation (Group 4, plinabulin 2.5 mg/kg i.p. BIW 2 wks)
C=CC(=O)Nc1cc(Nc2nccc(-c3cn(C)c4ccccc34)n2)c(OC)cc1N(C)CCN(C)C [osimertinib, reference compound] | control over the tumor size and slight increase in tumor size after the animals were tested for 15 days |  | 
CC(C)(C)c1[nH]cnc1/C=c1\[nH]c(=O)/c(=C/c2ccccc2)[nH]c1=O [plinabulin, (3Z,6Z)-3-Benzylidene-6-{[5-(2-methyl-2-propanyl)-1H-imidazol-4-yl]methylene}-2,5-piperazinedione] |  | tumor size increases | tumor size increases
